{"source": "patent US20080096807A1", "about": "“Cyclic vasoactive intestinal peptide receptor-2 agonists” (priority 2006, published 2008)", "key": {"VPAC2 receptor [1]": {"target": "T1, VPAC2 receptor (Homo sapiens, UniProt P41587)", "T1 construct": "The human T-lymphoid cell line Sup-Ti, which expresses the VPAC2 receptor; host or cells: Sup-T1 (Sup-Ti [sic]) human T-lymphoid cell line", "T1 sequence (P41587 24-438)": "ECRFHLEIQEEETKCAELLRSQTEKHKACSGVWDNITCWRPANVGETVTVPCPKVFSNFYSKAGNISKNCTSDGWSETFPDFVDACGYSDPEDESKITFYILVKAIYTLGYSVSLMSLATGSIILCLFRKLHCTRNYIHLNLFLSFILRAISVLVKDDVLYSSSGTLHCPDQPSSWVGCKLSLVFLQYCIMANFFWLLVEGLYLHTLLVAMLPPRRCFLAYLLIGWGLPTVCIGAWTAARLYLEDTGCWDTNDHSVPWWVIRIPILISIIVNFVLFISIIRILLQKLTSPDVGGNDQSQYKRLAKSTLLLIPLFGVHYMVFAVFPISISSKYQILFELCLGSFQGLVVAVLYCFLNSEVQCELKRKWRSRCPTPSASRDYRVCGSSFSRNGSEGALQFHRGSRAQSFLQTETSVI", "experiment": "Sup-T1 cAMP agonist assay", "format": "cell-based", "conditions": "human T-lymphoid cell line Sup-T1 expressing VPAC2 receptor; cAMP EIA; 5 min at room temperature; read-out: Sup-T1 cAMP EC50", "how_it_was_run": "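Sup-T1 human T-lymphoid cells with endogenous VPAC2 (RPMI 1640, 25 mM HEPES, 10% FBS) were plated at 4×10^4 cells/well and exposed to compound for 5 min at room temperature. After lysis, cAMP was measured by enzyme immunoassay. EC50 came from a sigmoidal fit of 7-concentration dose-response data.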"}, "[2]": {"test_system": "LPS-induced lung inflammation in male C57BL/6 mice", "experiment": "LPS-induced lung inflammation in male C57BL/6 mice (BAL neutrophilia)", "format": "in vivo", "conditions": "Dose 0.01%, BAL fluid neutrophilia", "experimental": "C57bl/6 mice are pretreated with vehicle or drug prior to an aerosol expose to lipopolysacchride (LPS, 500 μg/ml in sterile saline) for 15-30 minutes. The aerosol is generated by a Pari Ultra neb jet nebulizer, the outlet of which is connected to a small clear plastic chamber [H×W×D, 10.7×25.7×11 cm (4×10×4.5 in)] containing the animals. Bronchoalveolar lavage (BAL) is performed 24 hr later to determine the intensity of cell inflammation. BAL procedure is performed as described below.\nMice are pretreated with vehicle or drug prior to an intranasal administration of lipopolysacchride (0.05-0.3 mg/kg in sterile saline; 50 μl total volume, 25 μl/nostril). Intranasal administration is performed by presenting small droplets of the dosing solution at the nostril using a 25-50 μl eppendorff pipet. BAL is performed 3 to 24 h post LPS challenged as described above to determine the intensity of cell inflammation.\n24 h following LPS exposure, animals are anesthetized with pentobarbital (80-100 mg/kg, i.p.), ketamine/xyzaline (80-120 mg/kg/2-4 mg/kg, i.p.) or urethane (1.5-2.4 g/kg, i.p.); and through a small midline neck incision (15-20 mm), the trachea is exposed and cannulated with 20-gauge tubing adapter. Lungs are lavaged with 2×1 ml sterile Hank's balanced salt solution without Ca++ and Mg++(HBSS). Lavage fluid is recovered after 30 sec by gentle aspiration and pooled for each animal. Samples are then centrifuged at 2000 rpm for 10 minutes at 5° C. Supernatant is aspirated, and red blood cells are lysed from the resulting pellet with 0.5 ml distilled water for 30 sec before restoring osmolarity to the remaining cells by the addition of 5 ml of HBSS. Samples are recentrifuged at 2000 rpm for 10 minutes at 5° C. and supernatant aspirated. The resulting pellet is resuspended in 1 ml of HBSS. Total cell number is determined by Trypan Blue (Sigma Chemical, St. Louis, Mo.) exclusion from an aliquot of cell suspension using a hemocytometer or coulter counter. For differential cell counts, an aliquot of the cell suspension is centrifuged in a Cytospin (5 min, 1300 rpm; Shandon Southern Instruments, Sewickley, Pa.) and the slides fixed and stained with a modified Wright's stain (Hema 3 stain kit, Fisher Scientific). Standard morphological criteria is used in classifying at least 300 cells under light microscopy. Data in Table 3 is expressed as BAL cells×10^4/animal for neutrophils and total cells, or percent inhibition of the LPS induced BAL fluid neutrophilia response."}, "[3]": {"target": "T2, human neutrophil elastase (Homo sapiens, UniProt P08246)", "T2 sequence (P08246 30-247 limits assumed)": "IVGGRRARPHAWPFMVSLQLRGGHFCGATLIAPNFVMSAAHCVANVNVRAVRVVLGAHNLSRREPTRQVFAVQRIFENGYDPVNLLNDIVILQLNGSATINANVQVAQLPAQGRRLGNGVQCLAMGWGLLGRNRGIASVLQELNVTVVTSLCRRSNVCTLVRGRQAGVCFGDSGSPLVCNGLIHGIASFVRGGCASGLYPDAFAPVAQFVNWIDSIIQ", "experiment": "Peptide stability to neutrophil elastase (RP HPLC ESI MS)", "conditions": "halftime with human neutrophil elastase 1 to 2 μg/mL in PBS, ambient temperature, normalized to halftime of the reference standard", "description": "The proteolytic stabilities of peptide analogs were established with reversed phase high pressure liquid chromatography (RP HPLC) electrospray ionization mass spectrometry (ESI MS). Peptide analogs were incubated with human neutrophile elastase and the quantity of undigested analogs was determined by ESI MS at appropriate time points. Multiple peptide analogs could be included in one experiment as long as they could be differentiated by HPLC retention time and/or by molecular weight. Ac-His Ac-[sequence]Nle-[sequence]NH2 was used in all experiments as a control and as a reference standard. The simultaneous use of multiple peptide analogs together with a reference standard allowed for compensation for variations in the proteolytic fidelity of the enzyme over the multiple experiments. Integrated ion currents obtained for the individual undigested peptide were used for quantitation. For calculation of halftime first-order kinetic behavior was assumed and all calculations were normalized to the halftime of the reference standard.\nPeptide stock solutions were prepared in water to a concentration of 2.5 mg/mL. Unless in use, all stock solutions were kept at −20° C. […] Concentrations of the peptide analogs were adjusted accordingly. In order to do the proteolytic digestion, peptides were dissolved in phosphate buffered saline (PBS) to a concentration of 0.1 mg/mL. As many as six different peptide analogs were mixed into one 50 μL reaction volume. The reference standard was added to all experiments as a reference and internal standard. Elastase (Human Neutrophil, Calbiochem, Cat # 324681) was added from an elastase stock solution to a concentration of 1 to 2 μg/mL. Different amounts of the enzyme were chosen to compensate for the differences in the proteolytic stabilities of the peptide analogs. Previously, a stock solution of elastase was prepared in water at a concentration of 1 mg/mL. Small aliquots of the enzyme stock solution were kept at −20° C. to better maintain the enzyme activity by limiting the number of thaw and freeze cycles.\nThe digestion was done at ambient temperature in an autosampler tube within the autosampler of the HPLC system (Agilent 1100 Series). For a time course, 5 μL aliquots were injected in 70 minute intervals onto the reversed phase HPLC column (Phenomenex, Luna C18, 3μ, 100 ↑, 150×2.00 mm). For the starting time point an aliquot was injected just prior to the addition of the proteolytic enzyme. A total of eight time points could be recorded from one experiment, including the starting point. Peptides were separated on the reversed phase column with a 50 minute gradient of 5% to 30% organic phase. The aqueous phase was 0.05% (v/v) of trifluoroacetic acid in water and the organic one was 0.045% (v/v) of trifluoroacetic acid in acetonitrile. Absorbances were recorded at 214 and 280 nm respectively. All of the column effluent was introduced into the turbo V source of the electrospray ionization mass spectrometer (ABI 4000 QTrap LC/MS/MS System). Mass spectra were acquired in Q3MS mode in a mass range to include all triply charged ions of the non degraded peptide analogs. Care was taken to assure that peptide analogs could clearly be differentiated either by the chromatographic retention time or by the difference in molecular weight. Relative quantities of the respective undigested peptide analog were calculated from the integrated total ion current. A window of 2.5 Da was chosen and the manufacturer's software was used to integrate the individual ion currents. The overall halftime of an individual peptide analog was calculated by assuming first-order kinetic behavior and was normalized with respect to the halftime of the reference standard."}, "VPAC2 receptor [4]": {"target": "T3, VPAC2 receptor (human, UniProt P41587)", "T3 sequence": "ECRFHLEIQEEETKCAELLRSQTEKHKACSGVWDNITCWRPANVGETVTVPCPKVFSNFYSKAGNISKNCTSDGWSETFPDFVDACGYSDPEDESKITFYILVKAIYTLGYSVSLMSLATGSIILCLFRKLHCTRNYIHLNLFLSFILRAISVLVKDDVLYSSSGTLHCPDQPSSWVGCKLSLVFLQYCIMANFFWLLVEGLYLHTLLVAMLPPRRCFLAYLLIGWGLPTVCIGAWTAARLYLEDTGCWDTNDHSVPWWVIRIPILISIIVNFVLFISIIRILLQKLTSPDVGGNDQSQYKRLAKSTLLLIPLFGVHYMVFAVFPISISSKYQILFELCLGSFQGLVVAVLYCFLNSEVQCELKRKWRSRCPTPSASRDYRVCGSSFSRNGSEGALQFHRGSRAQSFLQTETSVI", "experiment": "cell-based or functional assay"}}, "note": "Bridge positions count the residues as written; N and C are the ends. Square brackets hold non-standard residues; d marks the D form. Peptide text beside a SMILES is read from it. ξ: configuration not given here. Thr(3ξ) = CC(O)[C@H](N)C(=O)O; αMeV = CC(C)[C@](C)(N)C(=O)O; Nle = CCCC[C@H](N)C(=O)O", "data": [{"molecule": "CCCC[C@H](NC(=O)[C@H](CCCNC(=N)N)NC(=O)[C@H](CCCCN)NC(=O)[C@H](CCCNC(=N)N)NC(=O)[C@H](CC(C)C)NC(=O)[C@H](CCCCN)NC(=O)[C@@H](NC(=O)[C@H](Cc1ccc(O)cc1)NC(=O)[C@H](CC(N)=O)NC(=O)[C@H](CCC(=O)O)NC(=O)[C@@H](NC(=O)[C@H](Cc1ccccc1)NC(=O)[C@H](CO)NC(=O)[C@H](C)NC(=O)[C@H](CC(=O)O)NC(=O)[C@H](CO)NC(=O)[C@H](Cc1c[nH]cn1)NC(C)=O)C(C)O)C(C)O)C(=O)N[C@@H](CCC(=O)O)C(=O)N[C@@H](C)C(=O)N[C@@H](CCCCN)C(=O)N[C@H]1CCCCNC(=O)C[C@@H](C(=O)N[C@@H](CC(C)C)C(=O)N[C@@H](CCCCN)C(=O)N[C@@H](CCCCN)C(=O)NCC(=O)NCC(=O)N[C@H](C(N)=O)C(C)O)NC(=O)[C@H](CC(N)=O)NC(=O)[C@H](CC(C)C)NC(=O)[C@H](Cc2ccc(O)cc2)NC1=O", "note": "(stereo partly shown) [Example 15] (Ac-HSDASF[Thr(3ξ)]ENY[Thr(3ξ)]KLRKR[Nle]EAKKYLNDLKKGG[Thr(3ξ)]-NH2; lactam 21-25)", "values": [{"measurement": "EC50", "setting": "VPAC2 receptor [1]", "value": 117, "unit": "nM"}, {"measurement": "Inhibition of LPS-induced neutrophilia", "setting": "[2]", "value": "+ (+ 10-30%)"}, {"measurement": "Relative elastase stability", "setting": "[3]", "value": 4.8}]}, {"molecule": "CCCC[C@H](NC(=O)[C@H](CCCNC(=N)N)NC(=O)[C@H](CCCCN)NC(=O)[C@H](CCCNC(=N)N)NC(=O)[C@H](CC(C)C)NC(=O)[C@H](CCCCN)NC(=O)[C@@H](NC(=O)[C@H](Cc1ccc(O)cc1)NC(=O)[C@H](CC(N)=O)NC(=O)[C@H](CCC(=O)O)NC(=O)[C@@H](NC(=O)[C@H](Cc1ccccc1)NC(=O)[C@H](CO)NC(=O)[C@H](C)NC(=O)[C@H](CC(=O)O)NC(=O)[C@H](C)NC(=O)[C@H](Cc1c[nH]cn1)NC(C)=O)C(C)O)C(C)O)C(=O)N[C@@H](CCC(=O)O)C(=O)N[C@@H](C)C(=O)N[C@@H](CCCCN)C(=O)N[C@H]1CCCCNC(=O)C[C@@H](C(=O)N[C@@H](CC(C)C)C(=O)N[C@@H](CCCCN)C(=O)N[C@@H](CCCCN)C(=O)NCC(=O)NCC(=O)N[C@H](C(N)=O)C(C)O)NC(=O)[C@H](CC(N)=O)NC(=O)[C@H](CC(C)C)NC(=O)[C@H](Cc2ccc(O)cc2)NC1=O", "note": "(stereo partly shown) [Example 17] (Ac-HADASF[Thr(3ξ)]ENY[Thr(3ξ)]KLRKR[Nle]EAKKYLNDLKKGG[Thr(3ξ)]-NH2; lactam 21-25)", "values": [{"measurement": "EC50", "setting": "VPAC2 receptor [1]", "value": 23.3, "unit": "nM"}, {"measurement": "Inhibition of LPS-induced neutrophilia", "setting": "[2]", "value": "+ (+ 10-30%)"}, {"measurement": "Relative elastase stability", "setting": "[3]", "value": 4.6}]}, {"molecule": "Ac-HADA[αMeV]FTENYTKLRKQ[Nle]AAKKYLNDLKKGGT-NH2 (lactam 21-25; SMILES CCCC[C@H](NC(=O)[C@H](CCC(N)=O)NC(=O)[C@H](CCCCN)NC(=O)[C@H](CCCNC(=N)N)NC(=O)[C@H](CC(C)C)NC(=O)[C@H](CCCCN)NC(=O)[C@@H](NC(=O)[C@H](Cc1ccc(O)cc1)NC(=O)[C@H](CC(N)=O)NC(=O)[C@H](CCC(=O)O)NC(=O)[C@@H](NC(=O)[C@H](Cc1ccccc1)NC(=O)[C@@](C)(NC(=O)[C@H](C)NC(=O)[C@H](CC(=O)O)NC(=O)[C@H](C)NC(=O)[C@H](Cc1c[nH]cn1)NC(C)=O)C(C)C)[C@@H](C)O)[C@@H](C)O)C(=O)N[C@@H](C)C(=O)N[C@@H](C)C(=O)N[C@@H](CCCCN)C(=O)N[C@H]1CCCCNC(=O)C[C@@H](C(=O)N[C@@H](CC(C)C)C(=O)N[C@@H](CCCCN)C(=O)N[C@@H](CCCCN)C(=O)NCC(=O)NCC(=O)N[C@H](C(N)=O)[C@@H](C)O)NC(=O)[C@H](CC(N)=O)NC(=O)[C@H](CC(C)C)NC(=O)[C@H](Cc2ccc(O)cc2)NC1=O)", "values": [{"measurement": "Sup-T1 cAMP EC50", "setting": "VPAC2 receptor [4]", "value": 4.75, "unit": "nM"}]}, {"molecule": "Ac-HSDA[αMeV]FTENYTKLRKQ[Nle]AAKKYLNDLLKGGT-NH2 (lactam 21-25; not fully specified (residue 11); printed as Ac-His-Ser-Asp-Ala-MeVal-Phe-Thr-Glu-Asn-Tyr-thr-Lys-Leu-Arg-Lys-Gln-Nle-Ala-Ala-Lys-Lys-Tyr-Leu-Asn-Asp-Leu-Leu-Lys-Gly-Gly-Thr-NH2)", "values": [{"measurement": "Sup-T1 cAMP EC50", "setting": "VPAC2 receptor [4]", "value": 9.45, "unit": "nM"}]}, {"molecule": "Ac-HSDA[αMeV]FTENYTKLRKR[Nle]AAKKYLNDLKKGGT-NH2 (lactam 21-25; SMILES CCCC[C@H](NC(=O)[C@H](CCCNC(=N)N)NC(=O)[C@H](CCCCN)NC(=O)[C@H](CCCNC(=N)N)NC(=O)[C@H](CC(C)C)NC(=O)[C@H](CCCCN)NC(=O)[C@@H](NC(=O)[C@H](Cc1ccc(O)cc1)NC(=O)[C@H](CC(N)=O)NC(=O)[C@H](CCC(=O)O)NC(=O)[C@@H](NC(=O)[C@H](Cc1ccccc1)NC(=O)[C@@](C)(NC(=O)[C@H](C)NC(=O)[C@H](CC(=O)O)NC(=O)[C@H](CO)NC(=O)[C@H](Cc1c[nH]cn1)NC(C)=O)C(C)C)[C@@H](C)O)[C@@H](C)O)C(=O)N[C@@H](C)C(=O)N[C@@H](C)C(=O)N[C@@H](CCCCN)C(=O)N[C@H]1CCCCNC(=O)C[C@@H](C(=O)N[C@@H](CC(C)C)C(=O)N[C@@H](CCCCN)C(=O)N[C@@H](CCCCN)C(=O)NCC(=O)NCC(=O)N[C@H](C(N)=O)[C@@H](C)O)NC(=O)[C@H](CC(N)=O)NC(=O)[C@H](CC(C)C)NC(=O)[C@H](Cc2ccc(O)cc2)NC1=O)", "values": [{"measurement": "Sup-T1 cAMP EC50", "setting": "VPAC2 receptor [4]", "value": 10.5, "unit": "nM"}]}, {"molecule": "Ac-HADA[αMeV]FTENYTKLRKQ[Nle]AAKKYLNDLLKGGT-NH2 (lactam 21-25; SMILES CCCC[C@H](NC(=O)[C@H](CCC(N)=O)NC(=O)[C@H](CCCCN)NC(=O)[C@H](CCCNC(=N)N)NC(=O)[C@H](CC(C)C)NC(=O)[C@H](CCCCN)NC(=O)[C@@H](NC(=O)[C@H](Cc1ccc(O)cc1)NC(=O)[C@H](CC(N)=O)NC(=O)[C@H](CCC(=O)O)NC(=O)[C@@H](NC(=O)[C@H](Cc1ccccc1)NC(=O)[C@@](C)(NC(=O)[C@H](C)NC(=O)[C@H](CC(=O)O)NC(=O)[C@H](C)NC(=O)[C@H](Cc1c[nH]cn1)NC(C)=O)C(C)C)[C@@H](C)O)[C@@H](C)O)C(=O)N[C@@H](C)C(=O)N[C@@H](C)C(=O)N[C@@H](CCCCN)C(=O)N[C@H]1CCCCNC(=O)C[C@@H](C(=O)N[C@@H](CC(C)C)C(=O)N[C@@H](CC(C)C)C(=O)N[C@@H](CCCCN)C(=O)NCC(=O)NCC(=O)N[C@H](C(N)=O)[C@@H](C)O)NC(=O)[C@H](CC(N)=O)NC(=O)[C@H](CC(C)C)NC(=O)[C@H](Cc2ccc(O)cc2)NC1=O)", "values": [{"measurement": "Sup-T1 cAMP EC50", "setting": "VPAC2 receptor [4]", "value": 4.07, "unit": "nM"}]}]}
